Calls of active or inactive are those of the source. The calls are words filed in the database; no cut-off is given here.
Target: T1, Alpha-amylase 1A (Homo sapiens) (UniProt P0DUB6)
T1 sequence (whole entry): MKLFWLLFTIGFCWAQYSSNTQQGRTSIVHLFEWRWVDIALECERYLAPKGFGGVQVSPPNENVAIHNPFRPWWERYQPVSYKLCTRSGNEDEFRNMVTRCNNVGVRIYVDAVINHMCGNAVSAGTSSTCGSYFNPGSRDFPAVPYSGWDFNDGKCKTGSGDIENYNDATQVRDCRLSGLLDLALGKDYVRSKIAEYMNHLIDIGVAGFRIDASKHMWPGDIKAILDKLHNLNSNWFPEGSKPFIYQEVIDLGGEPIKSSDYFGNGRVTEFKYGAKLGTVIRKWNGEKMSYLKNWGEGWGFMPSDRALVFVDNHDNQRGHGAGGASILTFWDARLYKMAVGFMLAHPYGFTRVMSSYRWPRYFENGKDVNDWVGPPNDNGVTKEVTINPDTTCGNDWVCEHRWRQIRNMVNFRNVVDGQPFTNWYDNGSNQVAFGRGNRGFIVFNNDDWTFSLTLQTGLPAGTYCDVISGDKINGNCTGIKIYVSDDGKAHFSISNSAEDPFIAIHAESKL
Assay: Activity of human salivary alpha amylase by FRET assay

SMILES | Activity
CN(C)c1cccc2c(S(=O)(=O)NCCSCCCCCS[C@@H]3O[C@H](CO)[C@@H](O[C@H]4O[C@H](CO)[C@@H](O[C@H]5O[C@H](CO)[C@@H](O[C@H]6O[C@H](CO)[C@@H](O[C@H]7O[C@H](CO)[C@@H](O[C@H]8O[C@H](COCc9ccc%10ccccc%10c9)[C@@H](O)[C@H](O)[C@H]8O)[C@H](O)[C@H]7O)[C@H](O)[C@H]6O)[C@H](O)[C@H]5O)[C@H](O)[C@H]4O)[C@H](O)[C@H]3O)cccc12 | Active
CN(C)c1cccc2c(S(=O)(=O)NCCSCCCCCS[C@@H]3O[C@H](CO)[C@@H](O[C@H]4O[C@H](COCc5ccc6ccccc6c5)[C@@H](O)[C@H](O)[C@H]4O)[C@H](O)[C@H]3O)cccc12 | inactive

Reference: ChEMBL document CHEMBL1155403, “Simple and conveniently accessible bi-fluorescence-labeled substrates for amylases” (Bioorg Med Chem Lett, 2010)
